# Experiments:
# ULK1 kinase = biological target: T1, ULK1 kinase (Homo sapiens, UniProt O75385, E37A/K38A); experiment: Biochemical assay for ULK1 (coupled pyruvate kinase/lactate dehydrogenase assay); conditions: 1 mM ATP, 0.1 nM ULK1; read-out: ULK1 (inhibition of biochemical activity), IC50
# T1 construct: (residues 1-283; ID NO: 1); purchased Beryllium
# T1 sequence (O75385 1-283 E37A/K38A): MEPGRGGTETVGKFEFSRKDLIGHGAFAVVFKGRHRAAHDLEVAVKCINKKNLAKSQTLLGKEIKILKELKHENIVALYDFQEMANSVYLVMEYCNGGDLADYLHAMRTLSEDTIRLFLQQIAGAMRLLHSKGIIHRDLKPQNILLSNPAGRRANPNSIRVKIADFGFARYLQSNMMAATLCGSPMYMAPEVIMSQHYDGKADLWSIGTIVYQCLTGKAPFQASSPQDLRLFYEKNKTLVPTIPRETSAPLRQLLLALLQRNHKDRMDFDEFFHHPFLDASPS
# Experimental: Biochemical Assay for ULK1 (SEQ. ID NO: 1)
# Activity of ULK1 kinase was determined spectroscopically using a coupled pyruvate kinase/lactate dehydrogenase assay that continuously monitors the ATP hydrolysis-dependent oxidation of NADH (e.g., Schindler et al. Science (2000) 289: 1938-1942). Assays were conducted in 384-well plates (100 μL final volume) using 0.1 nM ULK1 (from Beryllium), 0.075 mM peptide substrate (YANWLAASIYLDGKKK), 1.5 units pyruvate kinase, 2.1 units lactate dehydrogenase, 1 mM phosphoenol pyruvate, 0.28 mM NADH and 1 mM ATP in assay buffer (100 mM Tris, pH 7.5, 15 mM MgCl2, 0.5 mM DTT, 0.004% (w/v) BSA, and 0.004% Triton X-100). Inhibition of ULK1 was measured by adding serial diluted test compound (final assay concentration of 1% DMSO). A decrease in absorption at 340 nm was monitored continuously for 6 h at 30° C. on a multi-mode microplate reader (BioTek). The reaction rate was calculated using the 2-3 h time frame. The reaction rate at each concentration of compound was converted to percent inhibition using controls (i.e., reaction with no test compound and reaction with a known inhibitor) and IC50 values were calculated using software routines in Prism (GraphPad software).
# ULK2 kinase = biological target: T2, ULK2 kinase (Homo sapiens, UniProt Q8IYT8); experiment: Biochemical assay for ULK2 (coupled pyruvate kinase/lactate dehydrogenase assay); conditions: 1 mM ATP, 1 nM ULK2; read-out: ULK2 (inhibition of biochemical activity), IC50
# T2 construct: (residues 1-306 with N-terminal GST and His tag; ID NO: 2); purchased Signal Chem U02-11G
# T2 sequence (Q8IYT8 with tags, fused parts or gaps): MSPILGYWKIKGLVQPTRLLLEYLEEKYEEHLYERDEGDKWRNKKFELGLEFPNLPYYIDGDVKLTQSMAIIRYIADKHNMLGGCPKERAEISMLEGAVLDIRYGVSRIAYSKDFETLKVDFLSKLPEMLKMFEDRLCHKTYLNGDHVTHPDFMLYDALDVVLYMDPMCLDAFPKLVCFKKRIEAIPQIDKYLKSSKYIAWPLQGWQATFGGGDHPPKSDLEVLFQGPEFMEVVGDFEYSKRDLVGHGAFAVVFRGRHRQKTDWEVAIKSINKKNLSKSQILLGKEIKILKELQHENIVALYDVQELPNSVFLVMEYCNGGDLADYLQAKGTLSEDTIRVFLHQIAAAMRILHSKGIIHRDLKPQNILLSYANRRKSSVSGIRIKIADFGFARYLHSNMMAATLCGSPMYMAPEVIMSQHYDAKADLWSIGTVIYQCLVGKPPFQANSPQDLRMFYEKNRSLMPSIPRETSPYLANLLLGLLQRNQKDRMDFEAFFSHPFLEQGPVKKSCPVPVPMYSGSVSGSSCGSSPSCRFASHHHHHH
# Experimental: Biochemical Assay for ULK2 (SEQ. ID NO: 2)
# Activity of ULK2 kinase was determined spectroscopically using a coupled pyruvate kinase/lactate dehydrogenase assay that continuously monitors the ATP hydrolysis-dependent oxidation of NADH (e.g., Schindler et al. Science (2000) 289: 1938-1942). Assays were conducted in 384-well plates (100 μL final volume) using 1 nM ULK2 (Signal Chem U02-11G), 200 μM ULKtide, 1.5 units pyruvate kinase, 2.1 units lactate dehydrogenase, 1 mM phosphoenol pyruvate, 0.28 mM NADH and 1 mM ATP in assay buffer (100 mM Tris, pH 7.5, 15 mM MgCl2, 0.5 mM DTT, 0.1% octyl-glucoside, 0.002% (w/v) BSA, and 0.002% Triton X-100). Inhibition of ULK2 was measured by adding serial diluted test compound (final assay concentration of 1% DMSO). A decrease in absorption at 340 nm was monitored continuously for 6 h at 30° C. on a multi-mode microplate reader (BioTek). The reaction rate was calculated using the 2-3 h time frame. The reaction rate at each concentration of compound was converted to percent inhibition using controls (i.e., reaction with no test compound and reaction with a known inhibitor) and IC50 values were calculated by fitting a four-parameter sigmoidal curve to the data using Prism (GraphPad software).
Compound,IC50 (ULK1 kinase),IC50 (ULK2 kinase)
CC/C(Nc1ccc(N2CCN(C)CC2)cc1)=C1/C(=O)Nc2ccc(C(=O)NOC)cc21 [Example 10],100 to 500 nM,
CC/C(Nc1cnn(C2CNC2)c1)=C1/C(=O)Nc2ccc(C(=O)NC[C@H]3CCCO3)cc21 [Example 96],≤ 10 nM,10 to 100 nM
CC/C(Nc1cc(C(C)C)ccn1)=C1/C(=O)Nc2ccc(C(=O)NCC(F)(F)F)cc21 [Example 97],100 to 500 nM,10 to 100 nM
CC/C(Nc1ccn(C(C)C)n1)=C1/C(=O)Nc2ccc(C(=O)NCC(F)(F)F)cc21 [Example 99],100 to 500 nM,> 500 nM
CC/C(Nc1cnn(C(C)C)n1)=C1/C(=O)Nc2ccc(C(=O)NCC(F)(F)F)cc21 [Example 110],10 to 100 nM,100 to 500 nM
CC/C(Nc1ccc(C(C)C)nc1)=C1/C(=O)Nc2ccc(C(=O)NCC(F)(F)F)cc21 [Example 111],100 to 500 nM,100 to 500 nM
CC/C(Nc1cn(C)nc1C)=C1/C(=O)Nc2ccc(C(=O)NCC(F)(F)F)cc21 [Example 115],> 500 nM,> 500 nM
CC/C(Nc1cnn(C(C)C)c1)=C1/C(=O)Nc2ccc(C(=O)N[C@@H](C)C(F)(F)F)cc21 [Example 120],10 to 100 nM,100 to 500 nM
CC/C(Nc1cnn2c1CCC2)=C1/C(=O)Nc2ccc(C(=O)NCC(F)(F)F)cc21 [Example 121],> 500 nM,> 500 nM
CC/C(Nc1cnn(C(C)C)c1)=C1/C(=O)Nc2ccc(C(=O)N(C)C[C@H]3CCCO3)cc21 [Example 129],10 to 100 nM,100 to 500 nM
CC/C(Nc1cnn(C(C)C)c1)=C1/C(=O)Nc2ccc(C(=O)NC(C)C)cc21 [Example 132],100 to 500 nM,> 500 nM
CC/C(Nc1cnn(C(C)C)c1)=C1/C(=O)Nc2ccc(C(=O)NC)cc21 [Example 133],100 to 500 nM,> 500 nM
CC/C(Nc1cnn(C(C)C)c1)=C1/C(=O)Nc2cc(Cl)c(C(=O)NCC(F)(F)F)cc21 [Example 141],100 to 500 nM,100 to 500 nM
CC/C(Nc1nc(C)co1)=C1/C(=O)Nc2ccc(C(=O)NCC(F)(F)F)cc21 [Example 143],100 to 500 nM,> 500 nM
CC/C(Nc1nnc(C)o1)=C1/C(=O)Nc2ccc(C(=O)NCC(C)(C)F)cc21 [Example 146],100 to 500 nM,100 to 500 nM
CC/C(Nc1cnn(C(C)C)c1)=C1/C(=O)Nc2ccc(C(=O)N3CC[C@@H](C(F)(F)F)C3)cc21 [Example 150],100 to 500 nM,> 500 nM
CC/C(Nc1cnn(C(C)C)c1)=C1/C(=O)Nc2ccc(C(=O)N3CC[C@H](C(F)(F)F)C3)cc21 [Example 151],10 to 100 nM,100 to 500 nM
CC/C(Nc1ncc(C)o1)=C1/C(=O)Nc2ccc(C(=O)NCC(F)(F)F)cc21 [Example 155],10 to 100 nM,100 to 500 nM
CC/C(Nc1cnn(C(C)C)c1)=C1/C(=O)Nc2ccc(C(=O)NCCN3CCC3)cc21 [Example 162],> 500 nM,> 500 nM
CC/C(Nc1cnn(C(C)C)c1)=C1/C(=O)Nc2ccc(C(=O)NCC3(OC)CC3)cc21 [Example 163],10 to 100 nM,100 to 500 nM
CC/C(Nc1cnn(C(C)C)c1)=C1/C(=O)Nc2ccc(C(=O)NCCC(C)(C)F)cc21 [Example 164],≤ 10 nM,10 to 100 nM
CC/C(Nc1cnn(C(C)C)c1)=C1/C(=O)Nc2ccc(C(=O)NC(C)(C)CC(F)(F)F)cc21 [Example 167],100 to 500 nM,100 to 500 nM
CC/C(Nc1cnn(C(C)C)c1)=C1/C(=O)Nc2ncc(C(=O)NCC(C)(C)F)cc21 [Example 170],100 to 500 nM,100 to 500 nM
CC/C(Nc1cnn(C(C)C)c1)=C1/C(=O)Nc2ncc(C(=O)NCC(F)(F)F)cc21 [Example 171],100 to 500 nM,100 to 500 nM
CC/C(Nc1cnn(C(C)C)c1)=C1/C(=O)Nc2ncc(C(=O)NCC3(F)CC3)cc21 [Example 172],10 to 100 nM,100 to 500 nM
CC/C(Nc1cnn(C(C)C)c1)=C1/C(=O)Nc2ccc(C(=O)N(CC(F)(F)F)C3CC3)cc21 [Example 175],≤ 10 nM,100 to 500 nM
CC/C(Nc1cnn(C(C)C)c1)=C1/C(=O)Nc2ccc(C(=O)CN(C)C)cc21 [Example 176],> 500 nM,> 500 nM
CC/C(Nc1cnn(C(C)C)c1)=C1/C(=O)Nc2ccc(C(=O)Nc3cnn(CC(F)(F)F)c3)cc21 [Example 178],> 500 nM,> 500 nM
CC/C(Nc1cncc(C(C)C)c1)=C1/C(=O)Nc2ccc(C(=O)NCC(F)(F)F)cc21 [Example 182],> 500 nM,> 500 nM
CC/C(Nc1cnn(C(C)C)c1)=C1/C(=O)Nc2ccc(C(N)=O)cc21 [Example 183],10 to 100 nM,10 to 100 nM

# Results, then the compound that gave them:
IC50 (ULK1 kinase),IC50 (ULK2 kinase),Compound
100 to 500 nM,,CC/C(Nc1cnn(C2CCN(C(C)C)CC2)c1)=C1/C(=O)Nc2ccc(C(=O)N3CCCO3)cc21 [Example 12]
100 to 500 nM,,CC/C(Nc1cnn(C2CCN(C(C)C)CC2)c1)=C1/C(=O)Nc2ccc(C(=O)NC)cc21 [Example 13]
100 to 500 nM,,CCNC(=O)c1ccc2c(c1)/C(=C(\CC)Nc1cnn(C3CCN(C(C)C)CC3)c1)C(=O)N2 [Example 14]
10 to 100 nM,100 to 500 nM,CC/C(Nc1cnn(C2CCN(C(C)C)CC2)c1)=C1/C(=O)Nc2ccc(C(=O)NC(C)C)cc21 [Example 17]
10 to 100 nM,,CC/C(Nc1cnn(C2CCN(C(C)C)CC2)c1)=C1/C(=O)Nc2ccc(C(=O)NCC3COC3)cc21 [Example 18]
10 to 100 nM,10 to 100 nM,CC/C(Nc1cnn(C2CCN(C(C)C)CC2)c1)=C1/C(=O)Nc2ccc(C(=O)NC[C@@H]3CCCO3)cc21 [Example 19]
> 500 nM,,CC/C(Nc1cnn(C2CCN(C(C)C)CC2)c1)=C1/C(=O)Nc2ccc(C(=O)N3CCOCC3)cc21 [Example 20]
10 to 100 nM,,CC/C(Nc1cnn(C2CCN(C(C)C)CC2)c1)=C1/C(=O)Nc2ccc(C(=O)NOC)cc21 [Example 22]
10 to 100 nM,,COCCNC(=O)c1ccc2c(c1)/C(=C(\C)Nc1cnn(C3CCN(C(C)C)CC3)c1)C(=O)N2 [Example 23]
100 to 500 nM,> 500 nM,CC/C(Nc1cnn(C2CCN(C(C)C)CC2)c1)=C1/C(=O)Nc2ccc(C(=O)NC3COC3)cc21 [Example 25]
≤ 10 nM,,C/C(Nc1cnn(C2CCN(C(C)C)CC2)c1)=C1/C(=O)Nc2ccc(C(=O)NC[C@H]3CCCO3)cc21 [Example 45]
100 to 500 nM,,CC/C(Nc1cnn(C2CCN(C(C)C)CC2)c1)=C1/C(=O)Nc2ccc(C(=O)NCCc3cnn(C)c3)cc21 [Example 49]
100 to 500 nM,,CC/C(Nc1cnn(C2CCN(C(C)C)CC2)c1)=C1/C(=O)Nc2ccc(C(=O)NCc3cnn(C)c3)cc21 [Example 50]
10 to 100 nM,100 to 500 nM,CC/C(Nc1cnn(C2CCN(C(C)C)CC2)c1)=C1/C(=O)Nc2ccc(C(=O)NCC3(C)CCCO3)cc21 (stereo not shown) [Example 56]
100 to 500 nM,,CC/C(Nc1cnn(C2CCN(C(C)C)CC2)c1)=C1/C(=O)Nc2ccc(C(=O)NCC(=O)N3CCCC3)cc21 [Example 57]
100 to 500 nM,,CC/C(Nc1cnn(C2CCN(C(C)C)CC2)c1)=C1/C(=O)Nc2ccc(C(=O)NCCC(=O)N(C)C)cc21 [Example 59]
> 500 nM,,CC/C(Nc1cnn(C2CCN(C(C)C)CC2)c1)=C1/C(=O)Nc2ccc(C(=O)N3CCCC3)cc21 [Example 81]
100 to 500 nM,100 to 500 nM,CC/C(Nc1cnn(C(C)C)c1)=C1/C(=O)Nc2ccc(C(=O)NC3CC3)cc21 [Example 131]
100 to 500 nM,,CC/C(Nc1cnn(C2CCN(C(C)C)CC2)c1)=C1/C(=O)Nc2ccc(C(=O)N(C)OC)cc21 [Example 139]
≤ 10 nM,≤ 10 nM,CC/C(Nc1cnn(C2CCC2)c1)=C1/C(=O)Nc2ccc(C(=O)NCC(C)(C)F)cc21 [Example 165]

# Source: patent US20240150368A1, “ULK INHIBITORS AND METHODS OF USE THEREOF” (Deciphera Pharmaceuticals, LLC, priority 2022, published 2024)
